Results on ten compounds are retold here after ChEMBL document CHEMBL1201862, “PubChem BioAssay data set” (2004).

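A five-concentration, 48-hour dose response in 96-well plates underlies each endpoint, interpolated linearly between surrounding concentrations. GI50: concentration for 50% inhibition of growth.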 Calls of active or inactive are those of the source. Cut-off read from the data, not from the text of the source: active = GI50 up to about 1.1 µM and inactive = higher.

Test systems include A498; BT-549; CAKI-1; CCRF-CEM; HCC 2998; HL-60; NCI-H226; NCI-H522; NCI/ADR-RES; OVCAR-3; RXF 393; SK-MEL-28; SK-MEL-5; SK-OV-3; SN12C; SNB-19; SR; SW-620; UACC-257; UO-31.
What all share (assay): growth of human tumour cells (NCI), 48 h

Turning to `O=C(Nc1cccc(NC(=O)C(=O)C2CCC3=C(Sc4ccccc4N3)C2=O)n1)C(=O)C1CCC2=C(Sc3ccccc3N2)C1=O` (stereo not given), the GI50 is > 100 µM (inactive) in the test on A498; 79.6 µM (inactive) in the test with BT-549; 38.3 µM (inactive) in the test on CAKI-1; 70.1 µM (inactive) in the test with CCRF-CEM; 29.8 µM (inactive) in the test on HCC 2998; 39.5 µM (inactive) with HL-60. Also, the GI50 was 26.5 µM (inactive) in the test with NCI-H226; 74.6 µM (inactive) with NCI-H522; 40.8 µM (inactive) with NCI/ADR-RES; > 100 µM (inactive) with OVCAR-3; > 100 µM (inactive) in the test with RXF 393; > 100 µM (inactive) in the test with SK-MEL-28. Moreover, the GI50 in the test on SK-MEL-5 was 41.2 µM (inactive); in the test on SK-OV-3, > 100 µM (inactive); in the test on SN12C, 74.3 µM (inactive); with SNB-19 it was 73.6 µM (inactive); in the test with SR it was 71.4 µM (inactive); in the test on SW-620, 40.7 µM (inactive). Also, the results for the GI50 in the test with UACC-257 and in the test with UO-31 were > 100 µM (inactive) and 47.3 µM (inactive), respectively.

Consider `O=C(CCc1ccccc1)n1cccc1CO`, for which the GI50 in the test on A498, in the test with BT-549, with CAKI-1, in the test on CCRF-CEM, in the test on HCC 2998 and with HL-60 was > 100 µM (inactive) each time. The GI50 in the test on NCI-H226 is > 100 µM (inactive); in the test on NCI-H522, > 100 µM (inactive); in the test with NCI/ADR-RES, > 100 µM (inactive); in the test with OVCAR-3 it was > 100 µM (inactive); in the test with RXF 393, 93.3 µM (inactive); in the test with SK-MEL-28, > 100 µM (inactive). Also, the GI50 in the test with SK-MEL-5, with SK-OV-3, in the test on SN12C, in the test on SNB-19, in the test on SR and in the test on SW-620 was > 100 µM (inactive) each time. Also, the GI50 in the test with UACC-257 and in the test with UO-31 was > 100 µM (inactive) each time.

Turning to `CSC1=C(C#N)C(=S)N=C(N)C1C(=O)Nc1ccc(C)cc1` (stereo not given), the GI50 was 68.9 µM (inactive) in the test with A498; > 100 µM (inactive) with BT-549; > 100 µM (inactive) in the test on CAKI-1; > 100 µM (inactive) in the test on CCRF-CEM; > 100 µM (inactive) with HCC 2998; > 100 µM (inactive) with HL-60. The GI50 is 60.1 µM (inactive) in the test with NCI-H226; 32 µM (inactive) in the test with NCI-H522; > 100 µM (inactive) in the test on NCI/ADR-RES; > 100 µM (inactive) with OVCAR-3; > 100 µM (inactive) in the test on RXF 393; > 100 µM (inactive) with SK-MEL-28. The GI50 in the test with SK-MEL-5, in the test with SK-OV-3, in the test on SN12C, in the test with SNB-19, in the test with SR and in the test on SW-620 was > 100 µM (inactive) throughout. The GI50 was > 100 µM (inactive) with UACC-257 and 64 µM (inactive) in the test with UO-31.

Turning to `O=[N+]([O-])/C(C(Cl)=C(Cl)Cl)=C(/Br)SCc1ccccc1`, the GI50 in the test on A498 was 7.01 µM (inactive); in the test with BT-549 it was 2 µM (inactive); in the test on CAKI-1, 2 µM (inactive); with CCRF-CEM, 0.277 µM (active); with HCC 2998, 7.21 µM (inactive); in the test with HL-60, 0.222 µM (active). In addition, the GI50 in the test on NCI-H226 is 6.07 µM (inactive); with NCI-H522, 1.71 µM (inactive); with NCI/ADR-RES, 3.29 µM (inactive); with OVCAR-3, 1.86 µM (inactive); with RXF 393, 1.79 µM (inactive); in the test on SK-MEL-28, 1.89 µM (inactive). Moreover, the GI50 with SK-MEL-5 was 2.96 µM (inactive); in the test on SK-OV-3 it was 22 µM (inactive); with SN12C it was 2.27 µM (inactive); in the test with SNB-19, 10.4 µM (inactive); in the test on SR it was 0.375 µM (active); in the test with SW-620, 1.63 µM (inactive). Also, the GI50 is 3.18 µM (inactive) in the test with UACC-257 and 2.45 µM (inactive) with UO-31.

Consider `N#Cc1c(C#N)c(SSc2c(C#N)c(C#N)c(N)n2-c2cccc3ccccc23)n(-c2cccc3ccccc23)c1N`, for which the GI50 was 30.2 µM (inactive) in the test on A498; 5.83 µM (inactive) in the test with BT-549; 8.05 µM (inactive) in the test with CAKI-1; 1.97 µM (inactive) in the test on CCRF-CEM; 20.1 µM (inactive) with HCC 2998; 2.33 µM (inactive) with HL-60. For the same compound, the GI50 in the test with NCI-H226 was 30.2 µM (inactive); in the test on NCI-H522 it was 1.5 µM (inactive); in the test with NCI/ADR-RES, 25.1 µM (inactive); in the test on OVCAR-3 it was 1.84 µM (inactive); in the test on RXF 393, 6.08 µM (inactive); with SK-MEL-28 it was 6.03 µM (inactive). For the same compound, the GI50 in the test with SK-MEL-5 is 20.2 µM (inactive); with SK-OV-3, 24.1 µM (inactive); with SN12C, 12 µM (inactive); with SNB-19 it was 20.9 µM (inactive); with SR, 2.34 µM (inactive); with SW-620, 2.56 µM (inactive). Also, the figures for the GI50 with UACC-257 and with UO-31 were 5.62 µM (inactive) and 2.34 µM (inactive), respectively.

For `C/C(Nc1ccc(Cl)cc1)=C1/CCOC1=O`, the GI50 is > 100 µM (inactive) in the test with A498; 52.7 µM (inactive) in the test on BT-549; > 66.1 µM (inactive) in the test on CAKI-1; 1.55 µM (inactive) in the test with CCRF-CEM; 5.68 µM (inactive) in the test on HCC 2998; 1.15 µM (inactive) in the test with HL-60. The GI50 in the test on NCI-H226 is > 100 µM (inactive); in the test with NCI-H522, > 70 µM (inactive); in the test on NCI/ADR-RES, > 75.9 µM (inactive); in the test with OVCAR-3, 46.8 µM (inactive); in the test on RXF 393 it was > 32.1 µM (inactive); in the test on SK-MEL-28, > 100 µM (inactive). Besides, the GI50 in the test on SK-MEL-5 was 1.13 µM (inactive); in the test on SK-OV-3 it was 59.2 µM (inactive); with SN12C, > 100 µM (inactive); in the test on SNB-19, > 100 µM (inactive); with SR it was 21.5 µM (inactive); with SW-620, > 53.2 µM (inactive). Moreover, the values for the GI50 in the test with UACC-257 and with UO-31 were 46.5 µM (inactive) and 2.81 µM (inactive), respectively.

Turning to `COc1cc(OC)c(/C=C\c2cc(/C=C/c3c(OC)cc(OC)cc3OC)c3ccccc3[n+]2C)c(OC)c1`, the GI50 is 4.59 µM (inactive) in the test on A498; 4.1 µM (inactive) in the test on BT-549; 6.61 µM (inactive) in the test with CAKI-1; 1.38 µM (inactive) in the test on CCRF-CEM; 3.48 µM (inactive) in the test with HCC 2998; 2 µM (inactive) in the test with HL-60. Also, the GI50 is 5.96 µM (inactive) in the test on NCI-H226; 1.96 µM (inactive) in the test on NCI-H522; > 100 µM (inactive) with NCI/ADR-RES; 2.33 µM (inactive) in the test on OVCAR-3; 3.41 µM (inactive) with RXF 393; 3.39 µM (inactive) in the test on SK-MEL-28. The GI50 is 1.31 µM (inactive) in the test on SK-MEL-5; 4.69 µM (inactive) in the test on SK-OV-3; 2.18 µM (inactive) in the test on SN12C; 8.47 µM (inactive) in the test on SNB-19; 2.24 µM (inactive) in the test on SR; 2.39 µM (inactive) in the test with SW-620. The GI50 is 2.92 µM (inactive) in the test on UACC-257 and 7.16 µM (inactive) with UO-31.

For the compound `CC1=C[C@@H](C)C[C@]2(C)CC[C@H](O2)[C@]23CC[C@](CO)(C[C@H](O2)[C@@H]2O[C@@](C)(CC2=O)[C@@H](O)[C@H]2CC[C@@]4(CCC[C@@H](O4)[C@H](C)C(=O)O[C@H]4C[C@H]([C@]5(O)OCC[C@H](C)[C@@H]5O)O[C@H]4C=C1)O2)O3`, the GI50 with A498 is 0.00229 µM (active); in the test on BT-549 it was 0.0127 µM (active); with CAKI-1, 0.00724 µM (active); with CCRF-CEM, 0.00471 µM (active); with HCC 2998 it was 0.0906 µM (active); in the test on HL-60, 0.0809 µM (active). In addition, the GI50 was 0.00386 µM (active) with NCI-H226; 0.116 µM (active) in the test with NCI-H522; > 5.18 µM (inactive) with NCI/ADR-RES; 0.0171 µM (active) with OVCAR-3; 0.0118 µM (active) in the test with RXF 393; 0.0124 µM (active) with SK-MEL-28. In addition, the GI50 in the test with SK-MEL-5 was 0.0142 µM (active); in the test on SK-OV-3, 0.0177 µM (active); with SN12C, 0.0212 µM (active); in the test with SNB-19, 0.0197 µM (active); in the test on SR it was 0.0139 µM (active); in the test with SW-620 it was 0.214 µM (active). For the same compound, the values for the GI50 in the test on UACC-257 and in the test on UO-31 were 0.142 µM (active) and 0.0435 µM (active), respectively.

For the compound `O=c1oc2ccccc2c(Nc2ccc3c(c2)Oc2ccccc2O3)c1[N+](=O)[O-]`, the GI50 was 27 µM (inactive) in the test with A498; 25.6 µM (inactive) with BT-549; 54.8 µM (inactive) in the test with CAKI-1; 40.3 µM (inactive) in the test on CCRF-CEM; 28.1 µM (inactive) with HCC 2998; > 100 µM (inactive) with HL-60. The GI50 in the test with NCI-H226 is 23.1 µM (inactive); in the test with NCI-H522, 24.1 µM (inactive); with NCI/ADR-RES, 27.9 µM (inactive); with OVCAR-3, 24.6 µM (inactive); in the test on RXF 393, 17.5 µM (inactive); in the test on SK-MEL-28, 21.2 µM (inactive). The GI50 is 20.4 µM (inactive) in the test with SK-MEL-5; 19.1 µM (inactive) with SK-OV-3; 35.8 µM (inactive) in the test on SN12C; 17.5 µM (inactive) in the test with SNB-19; 38.3 µM (inactive) in the test with SR; 22.7 µM (inactive) in the test with SW-620. Besides, the GI50 with UACC-257 was 30.3 µM (inactive); in the test on UO-31, > 100 µM (inactive).

`c1ccc([P+](c2ccccc2)(c2ccccc2)c2ccc([P+](c3ccccc3)(c3ccccc3)c3ccccc3)c3ccccc23)cc1`: the GI50 was > 100 µM (inactive) in the test on A498; 51.2 µM (inactive) in the test on BT-549; > 100 µM (inactive) in the test with CAKI-1; 64.4 µM (inactive) in the test on CCRF-CEM; 49.2 µM (inactive) with HCC 2998; 41.6 µM (inactive) with HL-60. For the same compound, the GI50 in the test with NCI-H226 was > 100 µM (inactive); in the test on NCI-H522 it was 44.4 µM (inactive); in the test on NCI/ADR-RES, > 100 µM (inactive); in the test with OVCAR-3 it was 46.3 µM (inactive); in the test on RXF 393, > 100 µM (inactive); in the test on SK-MEL-28, > 100 µM (inactive). Also, the GI50 with SK-MEL-5 was 62.1 µM (inactive); with SK-OV-3 it was > 100 µM (inactive); with SN12C, > 100 µM (inactive); with SNB-19 it was 65 µM (inactive); in the test on SR, < 0.01 µM (active); in the test on SW-620 it was > 100 µM (inactive). Besides, the GI50 with UACC-257 was 32 µM (inactive); with UO-31, > 100 µM (inactive).
